{"source": "patent US20170298402A1", "about": "“SELF-LABELING NUCLEIC ACIDS AND METHODS OF USE” (President and Fellows of Harvard College, priority 2014, published 2017)", "tested_on": "post-round 6 RNA pool", "assay": "Streptavidin gel mobility shift of post-round 6 RNA pool with each electrophilic probe", "type": "biochemical", "settings": "streptavidin incubation and gel mobility shift", "experimental": "The reaction between small-molecule probe(s) and the RNA pool was performed as follows: the RNA pool (1 μM) in buffer containing 150 mM NaCl, 25 mM Na-HEPES, pH 7.4, was heated at 65° C. for 5 minutes, then allowed to cool for an additional 5 minutes. MgCl2 (10 mM) was then added for a total volume of 45 μL and the solution incubated for 10 minutes, followed by addition of 1.3 mM of the biotinylated small-molecule probe in DMSO. After incubation for the desired time, the RNA was precipitated by the addition of 5 μL of 3 M NaOAc and 180 μL of EtOH.\nThe pellet resulting from EtOH precipitation of a reaction of RNA (750 ng) with a small-molecule probe was resuspended in 21 μL H2O. The RNA (7 μL) and streptavidin (NEB; 1 μg) were incubated at room temperature for 25 minutes and then combined with gel electrophoresis loading buffer. The sample was electrophoresed on a 10% PAGE denaturing gel (240 V, 35 minutes) and visualized following incubation with SYBR Green II (Life Technologies).\nTo identify the electrophile(s) that reacted with the enriched RNA, we performed one additional round of in vitro selection and then incubated the resulting post-round 6 RNA pool with each of the eight electrophilic probes."}
{"smiles": "CC1O[C@H]1CCCOCCOC(=O)CCCCC1SCC2NC(=O)NC21", "note": "(stereo partly shown) [probe 1]", "values": [{"measurement": "reaction with the post-round 6 RNA pool", "result": "reacted"}]}
